This is an account of results in US6348211B1, “Compositions and methods for treatment of attention deficit disorder and attention deficit/hyperactivity disorder with methylphenidate” (Noven Pharmaceuticals, Inc., priority 1997, dated 2002).

The nature of data set [1]: Degradation of methylphenidate in topical composition in the presence of acid functional groups. The data set is classed as physicochemical. The settings on record: with every 1% increase by weight in acid functional component of the topical composition. From the text:
It has been discovered that methylphenidate, and in particular the base form, can be unstable and undergoes degradation in the presence of acid functional groups which are contained in adhesives, enhancers, excipients and other components of the topical composition. The major degradant/metabolite appears to be ritalinic acid, which increases about ten fold with every 1% increase by weight in such acid functional component. Such degradation can greatly reduce the amount of the active enantiomer during storage of the topical composition, thus reducing the amount of active methylphenidate available for drug delivery.

The conditions of data set [2]: among the four enantiomers of methylphenidate; cited from earlier work.

As to `COC(=O)C(c1ccccc1)C1CCCCN1` (centres unmarked) [Methylphenidate], the “increase of major degradant ritalinic acid” value in data set [1] is “about ten fold”.
With `COC(=O)[C@H](c1ccccc1)[C@H]1CCCCN1` [d-threo-methylphenidate], the activity of enantiomer entry in data set [2] is given as “significantly active”.
